# Measured values: a melting point compilation (Tetko et al.; mined from patent text by program, amines drawn as free bases though some values may be those of a salt)
row,melting point [°C],Compound
1,116 to 118,O=C(O)C(CC1CCCCC1)NC(=O)C(CS)C(F)(F)F (stereo unspecified)
2,131 to 133,CCOC(=O)CC(=O)CNC(=O)CCc1cc(-c2ccc(C(F)(F)F)cc2)oc1C
3,95 to 100,COc1cc(N)ccc1-c1nc(-c2cccnc2)c(C)[nH]1
4,90.8 to 91.5,COC(=O)c1ccc(OC(C)c2ccccc2OCc2ccccc2)cc1 (stereo unspecified)
5,176,Cc1cccc(NC(=O)NCC(=O)N(c2ccccc2)C(C(=O)OC(C)(C)C)c2ccc(Cl)c(Cl)c2)c1 (racemic)
6,56 to 58,CCCCCc1ccc(-c2c(C(C)C)cc(-c3ccccc3)c(CO)c2C(C)C)nc1
7,52 to 54,CCOC(=O)N1CCCSC1=C(C(C)=O)[N+](=O)[O-]
8,113,CN(CCN)C(=O)N1N=C2c3cc(F)ccc3OC[C@@H]2[C@@H]1c1ccccc1 (racemic)
9,162,CS(=O)(=O)N1CCN([C@](O)(CNC(=O)c2ccc(OCC#CCO)cc2)C(N)=O)CC1
10,123 to 126,Nc1cc(/C=C/c2cc(/C=C/c3ccc4cc[nH]c4c3)[nH]n2)ccc1O
11,254 to 256,S=c1[nH]nc(-c2ccc3ccccc3c2)s1
12,115 to 116,Cc1cc(NC(=O)NN(c2ccccc2)c2cccc(C#N)c2)ccc1N1CCOCC1
13,168 to 169,O=CN(O)C(CS(=O)(=O)c1ccc(-c2ccc(C(F)(F)F)cc2)cc1)c1ccccn1 (stereo unspecified)
14,94 to 95,CCN1c2ccccc2Sc2cc(C=O)ccc21
15,148 to 151,COc1ccc(S(=O)(=O)C(CCCCOc2ccccc2)(Cc2cccnc2)C(=O)O)cc1 (stereo unspecified)
16,77.5 to 80,CCOC(=O)CNc1nc(Cl)ccc1[N+](=O)[O-]
17,217 to 219,Cc1c(/C=C/C(=O)O)cnn1C
18,187 to 189,CCCCc1nn(-c2ccccc2C(F)(F)F)c(=O)n1Cc1ccc(-c2ccccc2S(=O)(=O)NC(=O)C2CC2)cc1
19,76 to 78,CCc1nc(/C=C\c2cn(-c3ccccc3)nc2OCc2ccc(OCc3nc(N4CCOCC4)sc3C)c(OC)c2)cs1
20,217 to 220,O=C(O)c1cn(C2CC2)c2c(Cl)c(N3CC4CCCC3CN4)c(F)cc2c1=O (stereo unspecified)
21,71 to 75,COc1cc(/C=C/C(=O)c2ccc(NS(C)(=O)=O)cc2)cc(-c2cccs2)c1OC
22,126 to 128,CC(C(=O)N(C)C)n1cc(Cl)c(-c2c(Cl)cccc2Cl)n1 (stereo unspecified)
23,219,COc1cc(-n2cnc3cc(-c4ccc(Cl)cc4)sc3c2=O)ccc1OCC1(OP(=O)(O)O)CC(F)(F)C1
24,146 to 148,CC(=O)NC[C@H]1CN(c2ccc(N3CCC(n4nnnc4CC(=O)N4CCOCC4)CC3)c(F)c2)C(=O)O1

row,melting point [°C],Compound
1,117 to 118,NS(=O)(=O)CCCSc1ccc2nc(Cl)cn2n1
2,148 to 150,COc1ccc(F)cc1C(C)(C)CC(O)(Cc1cccc(-c2cccnc2)c1)C(F)(F)F (stereo unspecified)
3,123 to 125,CC(C)n1c(=O)n(C)c(=O)c2c(SCCCO)n(C3Cc4ccccc4C3)cc21
4,122 to 123,O=Cc1cccc(NC(=O)c2ccccc2)c1
5,142 to 145,O=c1oc(=O)n(Cc2ccc(F)cc2)c2ccccc12
6,153 to 155,CCOC(=O)c1c(CN(CC)CC)nc2sc3c(c2c1-c1ccc(OC)c(OC)c1)CCN(C(=O)NC)C3
7,162 to 164,COc1ccc2c(c1)C(c1ccc(OCCN3CCCCC3)cc1)c1c-2ccc2cc(OC)ccc12 (stereo unspecified)
8,218 to 221,O=C(C=Cc1ccncc1)c1ccc([N+](=O)[O-])cc1
9,111 to 112,CC(=O)NCCCc1ccc(OC2CCc3cc(Cl)ccc32)cc1 (stereo unspecified)
10,303,Cc1nc(NC(=O)c2cnn3c(C(F)(F)F)cc(-c4ccc(C(F)(F)F)cc4)nc23)sc1S(N)(=O)=O
11,209 to 210,CC1(C)CCC(C)(C)c2c1ccc(C=Nc1ccc(C(=O)O)c(O)c1)c2N
12,190 to 191,CS(=O)c1ccccc1C1CCCC2(C1)C(=O)Nc1ccccc12 (stereo unspecified)
13,97 to 97.5,O=C1CC(=O)N(Cc2ccccc2)[C@H](Cc2ccccc2)C1
14,83 to 87,NNc1cc(OCC2CCCSC2)c(Cl)cc1F (stereo unspecified)
15,215 to 216,CC1(C)Oc2cc3nonc3cc2[C@@H](NC(=O)Nc2ccccc2)[C@@H]1O (relative stereo)
16,170 to 172,CCCCOC(=O)n1c(N)nc(C#N)c1C#N
17,140 to 141,CN1CCN(c2cccc3ccc(NCc4cccc5ccccc45)cc23)CC1
18,190 to 192,O=C(O)CNC(=O)CC1=C(n2nc(-c3c(-c4ccccc4)nn4ccccc34)ccc2=O)CCCC1
19,188 to 190,C[C@H]1[C@@H]2C(=O)N(Cc3ccccc3)C(=O)[C@@H]2[C@H](c2ccc(C#N)cc2)N1C (racemic)
20,98,Cc1cccc2oc(C(O)[C@H](C)NC(=O)OCc3ccccc3)nc12 (stereo partly specified)
21,152 to 153,O=C(/C=C/c1cccc(NC(=O)CCCc2ccccc2)c1)NO
22,52 to 53,CC(=O)OC[C@](O)(CO)c1ccc(F)cc1F
23,59 to 63,CCOC(=O)C1=Cc2cc(-c3ccc(OC(F)(F)F)cc3)ccc2OCC1
24,125 to 127,Oc1cccc(C(O)CCCCCOc2cccc(Cl)c2)c1 (stereo unspecified)

row,melting point [°C],Compound
1,193,N#Cc1cnn2c(C(F)(F)F)cc(-c3cccnc3)nc12
2,98,COc1ccc(S(=O)(=O)C(C)(Cc2ccc(OCCN3CCCCC3)cc2)C(N)=O)cc1 (stereo unspecified)
3,168 to 170,N#Cc1cc(Cl)cc(Oc2ccc(CC(=O)Nc3ccc(S(N)(=O)=O)cc3Br)cc2Br)c1
4,99 to 100,CCOC(=O)Cc1ccc2c(c1)C(O)C(NC(=O)OC)CC2 (stereo unspecified)
5,109 to 110,Cc1nn(-c2ccc(Cl)cc2Cl)c(=O)n(C)c1=O
6,220 to 222,CC(=O)NCC(C)(C)c1ccc(C(=O)Nc2cn3cc(Cl)ccc3n2)cc1
7,94 to 95,CN(C)CCNC(=O)N1CCC(Oc2cccc(Cl)c2Cl)C1 (stereo unspecified)
8,102,CCCCSc1nc(=O)n(C(=O)NC)s1
9,80 to 81,C=CCC(=O)NCCN1CCOc2ccc(OC)cc21
10,54 to 59,Oc1cc2ccc(CCCCCl)cc2cc1O
11,205 to 207,CC(=O)Nc1c(C(=O)c2ccc(F)cc2)[nH]c2cc(Cl)ccc12
12,183 to 185,Cc1nc(N)nc(C)c1Br
13,206,Nc1ccc2ccc(Oc3ccccc3Br)nc2n1
14,> 280,CN1C(=O)Nc2ccccc2C1(O)C(=O)NC(N)=O (stereo unspecified)
15,63.5 to 65.5,CCCCCCCCCCCCCCCCSCC(CNS(=O)(=O)CCCI)n1nnnc1C (stereo unspecified)
16,53 to 54,CCC(=C1SCCCS1)c1ccc(Oc2ccccc2)cc1
17,161 to 162,COc1cccc(C=C(NC=O)c2ccncc2)c1OC
18,258 to 260,CCCONNc1nc(C(=O)c2ccccc2O)nc(C(=O)c2ccccc2O)n1
19,104 to 105,OCc1cnoc1-c1cc(Cl)cc(Cl)c1
20,251,Cn1ncc2c(C(F)F)cc(-c3ccc(N)c(C#N)c3)nc21
21,142,OC[C@@H]1CN(C(c2ccccc2)(c2ccccc2)c2ccccc2)CCO1
22,65 to 80,CC(=O)C(=Cc1cccc([N+](=O)[O-])c1)C(=O)OC(C)C(C)(C)NCCC(c1ccccc1)c1ccccc1 (stereo unspecified)

row,Compound,melting point [°C]
1,CNc1cc([N+](=O)[O-])cc([N+](=O)[O-])c1,153 to 154
